The values that follow come from patent publication EP0233841A1, “Quinone derivatives and process for their preparation” (Arai, Tadashi, Prof., priority 1986, dated 1987).

In brackets after ≈: the same amount, converted by molar mass.

This assay has as its system Leukämie-Zellinie L1210. In words: in vitro cytotoxicity test, growth inhibition of cultured leukaemia cell line L1210. The format is cell-based, Mäuse. The following applies: Mus musculus, 72 h; L1210 cells, 3-day incubation, cell count, by interpolation; read-out: ID₅₀ (50 % Hemmwirkdosis). The protocol: Die Saframycin-Derivate der vorliegenden Erfindungen zeigen insbesondere in vitro Zytotoxizität gegenüber Zellkulturen von Mäuse-Leukämie-Zellen L 1210 (NCI). Für die geprüften Verbindungen werden ID₅₀-Werte im Bereich von 0,1 bis 0,001 µg/ml gefunden.
Die Wirksamkeit gegen Tumoren in vitro wird mit einer kultivierten Leukämie-Zellinie L1210 (K. Kishi et al., J. Antibiot. 37, 847 (1984)) bestimmt. Die Zellen werden in Eagle's minimum essential medium (Nissui Seiyaku Co. Ltd., Tokyo) enthaltend 10 % fötales Kälberserum (Gibco Laboratories) in Suspension-Kultur gehalten. Die Zellen werden bei einer Konzentration von 3x10⁴ Zellen/ml in 24-Loch-Mikrotiterplatten (Costar) suspendiert und bei 37° in einer feuchten Atmosphäre enthaltend 5 % CO₂ in Luft 24 Stunden lang kultiviert, um exponentielles Wachstum auszulösen. Diese Kulturen werden mit einer Reihe von jeweils um den Faktor 10 verdünnten Proben Saframycin-Derivaten dieser Erfindung versetzt. Die Konzentration der Zellen wird nach 3-tägiger Inkubation durch elektrische Zählung mit einem Sysmex CC-130 Mikro-Zellzählgerät (Toa Electronics Ltd., Tokyo) bestimmt. Die Wachstumshemmung (Inhibierung I) in Prozent wird für jede Dosismenge nach der Formel I=(C3-T3)/(C3-C0)x100, worin T3 die Zellkonzentration in den Vertiefungen der Mikrotiterplatte bei einer gegebenen Verdünnung des Wirkstoffs nach 3-tägiger Inkubation, C3 die Zellkonzentration in der entsprechenden Kontroll-Inkubation und C0 die Zellkonzentration in den Vertiefungen vor der 3-tägigen Inkubation bedeuten, berechnet. ID₅₀ (50 % Hemmwirkdosis) wird durch Interpolierung bestimmt.

For `CCCCN(CCCC)[C@@H](C)C(=O)NCC1C2=C(CC3C4C5=C(CC(C(C#N)N13)N4C)C(=O)C(C)=C(OC)C5=O)C(=O)C(C)=C(OC)C2=O` (stereo partly drawn) [N,N-Dibutyl-Saframycin Y₃, N,N-Di-n-butyl-Saframycin Y₃], the IC50 is 0.08 µg/mL (≈ 0.118 µM).
As for `CCN(CC)[C@@H](C)C(=O)NCC1C2=C(CC3C4C5=C(CC(C(C#N)N13)N4C)C(=O)C(C)=C(OC)C5=O)C(=O)C(C)=C(OC)C2=O` (stereo partly drawn) [N,N-Diäthyl-Saframycin Y₃], the figure is 0.0035 µg/mL (≈ 0.00565 µM); as for `COC1=C(C)C(=O)C2=C(C1=O)C1C3CC4=C(C(=O)C(OC)=C(C)C4=O)C(CNC(=O)[C@H](C)NC(=O)c4ccc(Br)cc4)N3C(C#N)C(C2)N1C` (stereo partly drawn) [N-p-Brombenzyol-Saframycin Y₃, N-p-Brombenzoyl-Saframycin Y₃], 0.01 µg/mL (≈ 0.0134 µM); as for `COC1=C(C)C(=O)C2=C(C1=O)C1C3CC4=C(C(=O)C(OC)=C(C)C4=O)C(CNC(=O)[C@H](C)NC(=O)Nc4cccc5ccccc45)N3C(C#N)C(C2)N1C` (stereo partly drawn) [N-α-Naphthylcarbamoyl-Saframycin Y₃], 0.08 µg/mL (≈ 0.109 µM).
`COC1=C(C)C(=O)C2=C(C1=O)C1C3CC4=C(C(=O)C(OC)=C(C)C4=O)C(CNC(=O)[C@H](C)NC(C)C)N3C(C#N)C(C2)N1C` (stereo partly drawn) [N-Isopropyl-Saframycin Y₃]: the IC50 worked out at 0.0018 µg/mL (≈ 0.00297 µM).
As for `CCCCCC(=O)N[C@@H](C)C(=O)NCC1C2=C(CC3C4C5=C(CC(C(C#N)N13)N4C)C(=O)C(C)=C(OC)C5=O)C(=O)C(C)=C(OC)C2=O` (stereo partly drawn) [N-n-Hexanoyl-Saframycin Y₃], the IC50 came out at 0.0075 µg/mL (≈ 0.0113 µM).
Take `COC1=C(C)C(=O)C2=C(C1=O)C1C3CC4=C(C(=O)C(OC)=C(C)C4=O)C(CNC(=O)[C@H](C)NC(=S)Nc4ccccc4)N3C(C#N)C(C2)N1C` (stereo partly drawn) [N-Phenylthiocarbamoyl-Saframycin Y₃]: the IC50 amounted to 0.1 µg/mL (≈ 0.143 µM).
For `CCCN(CCC)[C@@H](C)C(=O)NCC1C2=C(CC3C4C5=C(CC(C(C#N)N13)N4C)C(=O)C(C)=C(OC)C5=O)C(=O)C(C)=C(OC)C2=O` (stereo partly drawn) [N,N-Dipropyl-Saframycin Y₃, N,N-Di-n-propyl-Saframycin Y₃], the IC50 worked out at 0.0015 µg/mL (≈ 0.00232 µM).
As for `COC1=C(C)C(=O)C2=C(C1=O)C1C3CC4=C(C(=O)C(OC)=C(C)C4=O)C(CNC(=O)[C@H](C)NCc4ccc([N+](=O)[O-])cc4)N3C(C#N)C(C2)N1C` (stereo partly drawn) [N-p-Nitrobenzyl-Saframycin Y₃], the IC50 amounted to 0.0015 µg/mL (≈ 0.00215 µM).
In the case of `CCCCCCCCCC(=O)N[C@@H](C)C(=O)NCC1C2=C(CC3C4C5=C(CC(C(C#N)N13)N4C)C(=O)C(C)=C(OC)C5=O)C(=O)C(C)=C(OC)C2=O` (stereo partly drawn) [N-n-Decanoyl-Saframycin Y₃] it was 0.11 µg/mL (≈ 0.153 µM).
In the case of `COC1=C(C)C(=O)C2=C(C1=O)C1C3CC4=C(C(=O)C(OC)=C(C)C4=O)C(CNC(=O)[C@H](C)NC(=O)C(C)(C)C)N3C(C#N)C(C2)N1C` (stereo partly drawn) [N-Pivaloyl-Saframycin Y₃] it was 0.01 µg/mL (≈ 0.0154 µM).
As for `CCCCCCCCCCCCCCCC(=O)N[C@@H](C)C(=O)NCC1C2=C(CC3C4C5=C(CC(C(C#N)N13)N4C)C(=O)C(C)=C(OC)C5=O)C(=O)C(C)=C(OC)C2=O` (stereo partly drawn) [N-n-Hexadecanoyl-Saframycin Y₃], the figure is 0.03 µg/mL (≈ 0.0374 µM).
Take `CCC(=O)N[C@@H](C)C(=O)NCC1C2=C(CC3C4C5=C(CC(C(C#N)N13)N4C)C(=O)C(C)=C(OC)C5=O)C(=O)C(C)=C(OC)C2=O` (stereo partly drawn) [N-Propionyl-Saframycin Y₃]: the IC50 amounted to 0.02 µg/mL (≈ 0.0323 µM).
On to `CCCCCCCC(=O)N[C@@H](C)C(=O)NCC1C2=C(CC3C4C5=C(CC(C(C#N)N13)N4C)C(=O)C(C)=C(OC)C5=O)C(=O)C(C)=C(OC)C2=O` (stereo partly drawn) [N-n-Octanoyl-Saframycin Y₃], for which the IC50 was found to be 0.11 µg/mL (≈ 0.159 µM).
As for `COC1=C(C)C(=O)C2=C(C1=O)C1C3CC4=C(C(=O)C(OC)=C(C)C4=O)C(CNC(=O)[C@H](C)NC(=O)Nc4ccccc4)N3C(C#N)C(C2)N1C` (stereo partly drawn) [N-Phenylcarbamoyl-Saframycin Y₃], the figure is 0.04 µg/mL (≈ 0.0586 µM).
